System: DOCA-Na. rat
Test: Comparative antihypertensive activity of polyether ionophores in the DOCA-Na rat (Example 3, Table III)
Type: in vivo
Details: oral, five-day period, daily dose 1/100 of oral LD50 up to 10 mg/kg/day
Experimental: Using bromolasalocid as a standard for comparison, a number of polyether ionophores were tested for antihypertensive activity. The tests were conducted utilizing single oral dosages in the DOCA-Na. rat over a five-day period with dosing discontinued thereafter. Blood pressure monitoring was carried out for the five-day period and daily after cessation of dosing until blood pressure returned to pre-drug levels. […] The daily dosage was calculated by using one-one hundredth (1/100) of the oral (per os) toxicity (LD50) up to a maximum of 10 mg/kg/day. The antihypertensive activity expressed as AHR (Subacute antihypertensive ratio) was calculated using bromolasalocid as the standard reference (Table III).

For `CC[C@@H](C(=O)[C@@H](C)[C@@H](O)[C@H](C)CCc1c(Br)cc(C)c(O)c1C(=O)O)[C@H]1O[C@](CC)([C@H]2CC[C@](O)(CC)[C@H](C)O2)C[C@@H]1C` [bromolasalocid], the “ONSET TO MAX. RESPONSE” value was 4 days and the “DURATION OF EFFECT” value (monitored until return to pre-drug levels) was 15 days.

— patent publication US4161520A, “Method of treating hypertension” (priority 1976, dated 1979)
